Counter-ions that a name gives are not always drawn.
Target: T1, recombinant human plasminogen activator inhibitor-1 (PAI-1) (Homo sapiens, UniProt P05121)
T1 construct: purchased Molecular Innovations, Royal Oak, Mich
Assay: Primary Screen for the PAI-1 Inhibition
Format: biochemical
Conditions: for inhibition at 25 µM / % Inhib. 25 μM: 25 μM test compound; for inhibition at 25 µM: read-out: % Inhib. 25 μM; for inhibition at 100 µM / % Inhib. 100 μM: 100 μM test compound; for inhibition at 100 µM: read-out: % Inhib. 100 μM
Method: Test compounds are dissolved in DMSO at a final concentration of 10 mM, then diluted 100× in physiologic buffer. The inhibitory assay is initiated by the addition of the test compound (1-100 μM final concentration, maximum DMSO concentration of 0.2%) in a pH 6.6 buffer containing 140 nM recombinant human plasminogen activator inhibitor-1 (PAI-1; Molecular Innovations, Royal Oak, Mich.). Following a 1 hour incubation at room temperature, 70 nM of recombinant human tissue plasminogen activator (tPA) is added, and the combination of the test compound, PAI-1 and tPA is incubated for an additional 30 minutes. Following the second incubation, Spectrozyme-tPA (American Diagnostica, Greenwich, Conn.), a chromogenic substrate for tPA, is added and absorbance read at 405 nm at 0 and 60 minutes. Relative PAI-1 inhibition is equal to the residual tPA activity in the presence of the test compound and PAI-1. Control treatments include the complete inhibition of tPA by PAI-1 at the molar ratio employed (2:1), and the absence of any effect of the test compound on tPA alone.

T1 sequence (P05121 24-402): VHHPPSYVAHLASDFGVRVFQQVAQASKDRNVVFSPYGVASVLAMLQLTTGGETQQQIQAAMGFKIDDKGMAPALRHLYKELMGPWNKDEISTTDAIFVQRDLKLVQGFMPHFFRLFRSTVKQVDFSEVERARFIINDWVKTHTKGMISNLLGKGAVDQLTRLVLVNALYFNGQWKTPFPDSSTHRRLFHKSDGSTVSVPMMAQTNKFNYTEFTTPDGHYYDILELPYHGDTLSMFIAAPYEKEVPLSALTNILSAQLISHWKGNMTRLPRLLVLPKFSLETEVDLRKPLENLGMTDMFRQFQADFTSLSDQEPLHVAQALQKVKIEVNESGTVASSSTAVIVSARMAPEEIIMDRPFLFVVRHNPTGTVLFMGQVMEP

| inhibition at 25 µM | inhibition at 100 µM | % Inhib. 25 μM | % Inhib. 100 μM | Compound |
| --- | --- | --- | --- | --- |
| – | 34% | – | – | O=C(O)COc1ccc2cc(CNC(=O)C3(c4ccc(Cl)cc4)CCCC3)ccc2c1 [Example 84, [6-({[1-(4-Chloro-phenyl)-cyclopentanecarbonyl]-amino}-methyl)-naphthalen-2-yloxy]-acetic acid] |
| – | 33% | – | – | CC(C)(C)c1cc(C(=O)NCc2ccc3cc(OCC(=O)O)ccc3c2)cc(C(C)(C)C)c1 [Example 86, {6-[(3,5-Di-tert-butyl-benzoylamino)methyl]-naphthalen-2-yloxy}-acetic acid] |
| – | 45% | – | – | O=C(O)COc1ccc2cc(CNC(=O)c3ccccc3CCc3ccccc3)ccc2c1 [Example 83, {6-[(2-Phenethyl-benzoylamino)-methyl]-naphthalen-2-yloxy}-acetic acid] |
| 1% | 55% | – | – | O=C(O)COc1ccc2cc(NC(=O)C3(c4ccc(Cl)cc4)CCCC3)ccc2c1 [Example 75, (6-{[1-(4-Chloro-phenyl)-cyclopentanecarbonyl]-amino}-naphthalen-2-yloxy)-acetic acid] |
| 27% | 51% | – | – | CC(C)(C)c1cc(C(=O)Nc2ccc3cc(OCC(=O)O)ccc3c2)cc(C(C)(C)C)c1 [Example 77, [6-(3,5-Di-tert-butyl-benzoylamino)-naphthalen-2yloxy]-acetic acid] |
| 9% | 68% | – | – | O=C(O)COc1ccc2cc(CNC(=O)c3cc(-c4ccc(C(F)(F)F)cc4)oc3C(F)(F)F)ccc2c1 [Example 82, [6-({[2-Trifluoromethyl-5-(4-trifluoromethyl-phenyl)-furan-3-carbonyl]-amino}methyl)-naphthalen-2-yloxy]-acetic acid] |
| – | – | 19% | 50% | O=C(O)COc1ccc2cc(NC(=O)C3(c4ccc(Cl)cc4)CCCCC3)ccc2c1 [Example 79, (6-{[1-(4-Chloro-phenyl)-cyclohexanecarbonyl]-amino}-naphathalen-2-yloxy)-acetic acid] |
| – | 48% | – | – | O=C(O)COc1ccc2cc(NC(=O)C3(c4ccc(Cl)cc4)CCC3)ccc2c1 [Example 80, (6-{[1-(4-Chloro-phenyl)-cyclobutanecarbonyl]-amino}-naphthalen-2-yloxy)-acetic acid] |
| – | – | 0% | 54% | O=C(O)COc1ccc2cc(NC(=O)c3ccccc3OCc3ccccc3)ccc2c1 [Example 76] |
| – | 32% | – | – | O=C(O)COc1ccc2cc(CNC(=O)C3(c4ccccc4)CCCC3)ccc2c1 [Example 87, (6-{[(1-Phenyl-cyclopentanecarbonyl)-amino]-methyl}-naphthalen-2-yloxy)-acetic acid] |
| 20% | 59% | – | – | O=C(O)COc1ccc2cc(NC(=O)c3ccc(-c4cccc(C(F)(F)F)c4)o3)ccc2c1 [Example 74, (6-{[5-(3-Trifluoromethyl-phenyl)-furan-2-carbonyl]-amino}-naphthalen-2-yloxy)-acetic acid] |

The next lines start with the compound.

| Compound | inhibition at 25 µM | inhibition at 100 µM | % Inhib. 25 μM | % Inhib. 100 μM |
| --- | --- | --- | --- | --- |
| CN(Cc1ccc2c(Br)c(OC(Cc3ccccc3)C(=O)O)ccc2c1)C(=O)c1ccc(C2CCCCC2)cc1 (stereo not drawn) [Example 61, 2-(1-Bromo-6-{[(4cyclohexyl-benzoyl)-methyl-amino]-methyl}-naphthalen-2-yloxy)-3-phenyl-propionic acid] | 24% | 75% | – | – |
| CN(Cc1ccc2c(Br)c(OCc3nnn[nH]3)ccc2c1)C(=O)c1ccc(Oc2cc(Cl)cc(Cl)c2)o1 [Example 38, 5-(3,5-Dichloro-phenoxy)-furan-2-carboxylic acid [5-bromo-6-(1H-tetrazol-5-ylmethoxy)-naphthalen-2-ylmethyl]-methyl-amide] | 47% | 81% | – | – |
| O=C(O)C(Cc1ccccc1)Oc1ccc2cc(CN(Cc3ccccc3)C(=O)c3ccc(C4CCCCC4)cc3)ccc2c1Br (stereo not drawn) [Example 71] | – | – | 47% | 78% |
| CCCCc1oc2ccccc2c1C(=O)N(CC)Cc1ccc2cc(OCc3nnn[nH]3)ccc2c1 [Example 35, 2-Butyl-benzofuran-3-carboxylic acid methyl-[6-(1H-tetrazol-5-ylmethoxy)-naphthalen-2ylmethyl]-methyl-amide] | 26% | 72% | – | – |
| CCc1oc2ccccc2c1C(=O)NCc1ccc2c(Br)c(OC(Cc3ccccc3)C(=O)O)ccc2c1 (stereo not drawn) [Example 58, 2-(1-Bromo-6-{[(2-ethyl-benzofuran-3-carbonyl)-amino]-methyl}-naphthalen-2-yloxy)-3-phenyl-propionic acid] | – | 29% | – | – |
| CCCc1c(C(=O)NCc2ccc3c(Br)c(OCC(=O)O)ccc3c2)cnn1-c1ccccc1 [Example 15, (1-Bromo-6-{[(1-phenyl-5-propyl-1H-pyrazole-4-carbonyl)-amino]-methyl}-naphthalen-2-yloxy)-acetic acid] | 5% | 92% | – | – |
| O=C(NCc1ccc2cc(OCc3nn[nH]n3)ccc2c1)c1cc2ccccc2o1 [Example 2] | – | – | 21% | 52% |
| O=C(O)COc1ccc2cc(NC(=O)c3cc(-c4ccccc4Cl)oc3C(F)(F)F)ccc2c1 [Example 73, (6-{[5-(2-Chloro-phenyl)-2-trifluoromethyl-furan-3-carbonyl]-amino}naphthalen-2-yloxy)-acetic acid] | 23% | 65% | – | – |
| CCCc1ccc(-c2ccc(C(=O)N(C)Cc3ccc4c(Br)c(OC(Cc5ccccc5)C(=O)O)ccc4c3)cc2)cc1 (stereo not drawn) [Example 63, 2-(1-Bromo-6-{[methyl-(4′-propyl-biphenyl-4-carbonyl)-amino]-methyl}-naphthalen-2-yloxy)-3-phenyl-propionic acid] | 14% | 69% | – | – |
| O=C(O)C(Cc1ccccc1)Oc1ccc2cc(CNC(=O)C3(c4ccc(Cl)cc4)CCCC3)ccc2c1Br (stereo not drawn) [Example 59] | – | – | – | 44% |
| O=C(O)COc1ccc2cc(CNC(=O)c3cnn(-c4ccc(Cl)cc4)c3C(F)(F)F)ccc2c1Br [Example 16, [1-Bromo-6-({[1-(4-chloro-phenyl)-5-trifluoromethyl-1H-pyrazole-4-carbonyl]-amino}-methyl)-naphthalen-2-yloxy]-acetic acid] | 12% | 85% | – | – |
| CCCc1c(C(=O)NCc2ccc3cc(OCC(=O)O)ccc3c2)cnn1-c1ccccc1 [Example 12, (6-{[(1-phenyl-5-propyl-1H-pyrazole-4-carbonyl)-amino]-methyl}-naphthalen-2-yloxy)-acetic acid] | 5% | 66% | – | – |
| CCCc1ccc(-c2ccc(C(=O)N(Cc3ccccc3)Cc3ccc4c(Br)c(OC(Cc5ccccc5)C(=O)O)ccc4c3)cc2)cc1 (stereo not drawn) [Example 70, 2-(6-{[Benzyl-(4′-propyl-biphenyl-4-carbonyl)-amino]-methyl}-1-bromo-naphthalen-2-yloxy)-3-phenyl propionic acid] | 17% | 81% | – | – |
| CCCc1c(C(=O)N(Cc2ccccc2)Cc2ccc3c(Br)c(OC(Cc4ccccc4)C(=O)O)ccc3c2)cnn1-c1ccccc1 (stereo not drawn) [Example 72, 2-(6-{[Benzyl-(1-phenyl-5-propyl-1H-pyrozole-4-carbonyl)-amino]-methyl}-1-bromo-naphthalen-2-yloxy)-3-phenyl-propionic acid] | – | – | 56% | 68% |
| CCCCc1oc2ccccc2c1C(=O)N(C)Cc1ccc2c(Br)c(OC(Cc3ccccc3)C(=O)O)ccc2c1 (stereo not drawn) [Example 62, 2-(1-Bromo-6-{[(2-butyl-benzofuran-3-carbonyl)-methyl-amino]-methyl}naphthalen-2-yloxy)-3-phenyl-propionic acid] | 1% | 84% | – | – |
| CCCCc1oc2ccccc2c1C(=O)Nc1ccc2cc(OCC(=O)O)ccc2c1 [Example 4, {6-[(2-Butyl-benzofuran-3-carbonyl)-amino]-naphthalen-2-yloxy}-acetic acid sodium salt] | 3% | 66% | – | – |
| CCCc1c(C(=O)NCc2ccc3cc(OCC(=O)O)ccc3c2)cnn1-c1ccc(Cl)cc1 [Example 13, [6-({[1-(4-Chloro-phenyl)-5-propyl-1H-pyrazole-4-carbonyl]-amino}-methyl)-naphthalen-2-yloxy]-acetic acid] | 5% | 52% | – | – |
| CCCCc1oc2ccccc2c1C(=O)NCc1ccc2c(Br)c(OCC(=O)O)ccc2c1 [Example 19, Sodium; (1-bromo-6-{[(2-butyl-benzofuran-3-carbonyl)-amino]-methyl}-naphthalen-2-yloxy)-acetate] | – | 32% | – | – |
| Cc1c(C(=O)N(C)Cc2ccc3c(Br)c(OCC(Cc4ccccc4)C(=O)O)ccc3c2)oc2ccccc12 (stereo not drawn) [Example 42, Sodium; 2-benzyl-3-(1-bromo-6-{[methyl-(3-methyl-benzofuran-2-carbonyl)-amino]-methyl}-naphthalen-2-yloxy)-propionate] | 63% | 79% | – | – |
| O=C(O)COc1ccc2cc(CNC(=O)c3cc4ccccc4o3)ccc2c1 [Example 1] | – | – | – | 23% |
| O=C(O)COc1ccc2cc(CNC(=O)c3cc(-c4ccc(Cl)cc4)oc3C(F)(F)F)ccc2c1 [Example 11, [6-({[5-(4-Chloro-phenyl)-2-trifluoromethyl-furan-3-carbonyl]-amino}-methyl)-naphthalen-2-yloxy]-acetic acid] | – | 32% | – | – |

Source: patent publication US6589970B2, “6-(aryl-amido or aryl-amidomethyl)-naphthalen-2-yloxy-acidic derivatives as inhibitors of plasminogen activator inhibitor type-1 (PAI-1)” (Wyeth, priority 2001, dated 2003)
